# Several values for one entry are separate records, joined by “and”; a condition that tells them apart may be missing. Equal values may be shown once.
# What was measured:
# [1] = tested on: T. b. brucei Lister 427; assay: Wash-out studies, Lister 427; type: cell-based; settings: concentrations greater than 2 to 4 µM, exposure longer than 4-6 hours, 3 days in drug free medium
# Method: In order to estimate a killing-dose for in vivo trials, a series of washout experiments were carried out: parasites were incubated with a given concentration of compound before washing out the drug and determining whether the parasites were still viable and able to proliferate. […] The existence of a small population of parasites more resistant to the effects of the CTCB compounds might be explained by subpopulations of parasites being present at different stages of the cell cycle. The parasite cultures used in the killing experiments are not synchronised, and it is likely that ATP requirement varies depending on cell cycle phase and a subpopulation with lower ATP requirement may be less susceptible to the CTCB compounds, however, this phenomenon needs further investigation.
# In vitro ‘wash-out’ studies were performed to determine the reversibility of the action of the CTCB compounds on trypanosomes, after a certain exposure time, and thus to assess whether the compounds have a trypanocidal or trypanostatic effect. These experiments were carried out with both the T. b. brucei Lister 427 and T. b. brucei GVR35-luc strains. […] The cell suspensions were then incubated under regular culture conditions for 3 days and parasite growth monitored daily by light microscopy. […]
# [2] = Mouse hepatocytes intrinsic clearance; type: in vitro ADME
# Excerpt: Methods are described in Supplementary Methods 5 and 6. Enzyme assay results are means ± SD in multiple assays. ADME results are averages of n = 2 or 3 measurements in individual assays.
# [3] = tested on: T. b. brucei GVR35-Luc2; assay: T. b. brucei GVR35-Luc2 time-to-kill assay (luciferin); type: cell-based; settings: for Luminescence, Average / Luminescence, individual replicates: Time to kill assay for GVR35 cells
# Method: Enzyme activity was measured using an aldolase/TIM linked assay at 25 °C. […] Experiments were carried out in duplicate. Data are presented as mean values ± standard deviation. […] Source data are provided as a Source Data File. b Kill time of CTCB-405 compared with existing HAT drugs in the clinic. […] Over 99% of trypanosomes were killed in under 30 min compared with much slower killing rates for the other drugs. The points on the graph for CTCB-405 were determined from two independent biological replicate experiments with each time point measured twice (using duplicate technical replicates). The ESD for each point on the graph is between 0.7 and 1.4%. For drugs in clinical use each point on the graph is the average of two technical replicates from one experiment (with a maximum difference of 7.8% for any of the points). Source data are provided as a Source Data File.
# As predicted from the biology of the BSF that relies wholly on glycolysis for ATP production, inhibition of the pathway results in a very fast TTK. Two experimental methods were used to measure ATP levels as a real-time indicator of viability. For Tb427 parasites, a Cell Titre Glo kit was used and for the TbGVR35 bioluminescent strain, killing was assessed by adding luciferin which requires ATP to produce a luminescent signal (Supplementary Methods 4.3 and 4.4). […] The BSF of T. brucei cannot produce ATP by oxidative phosphorylation and is solely dependent on flux through the glycolytic pathway. The clear correlation between inhibitor dose and reduction in ATP production, as observed in the TTK assays strongly supports the proposed mode of action of the CTCB compounds is by blocking glycolysis. It is a long-established experimental observation that withdrawal of glucose nutrient leads to rapid loss of motility and cell death. It has recently been shown that the BSF of T. brucei can proliferate on high levels of glycerol; however, we have shown that addition of glycerol to the medium has little effect on parasite killing by the CTCB compounds (Supplementary Table 3).
# The killing of T. b. brucei GVR35-Luc2 was assessed by adding D-luciferin to live cells resulting in the production of light in the presence of ATP and luciferase activity. Compounds of interest were serially diluted from 16 µM to 0.5 µM in Modified HMI-9 medium and added into sterile white, flat bottom 96-well plate (Greiner Inc.). 32,000 trypanosomes were added to each well. The plates were incubated at 37 °C and 5% CO2. At the end of each incubation, 200 µg/ml of D-luciferin was added to each well and incubated for 10 min. Luminescence was measured using a BMG plate reader and percentage cell viability versus incubation time was determined.
# [4] = tested on: T. b. gambiense; assay: EC50 against in vitro cultured T. b. gambiense (STMI); type: cell-based; settings: Trypanosoma brucei
# [5] = tested on: T. b. rhodesiense; assay: EC50 against in vitro cultured T. b. rhodesiense (STMI); type: cell-based; settings: Trypanosoma brucei
# [6] = tested on: T. b. brucei GVR35-luc; assay: Wash-out studies, GVR35; type: cell-based; settings: concentrations greater than 2 to 4 µM, exposure longer than 4-6 hours, 3 days in drug free medium
# Method: In vitro ‘wash-out’ studies were performed to determine the reversibility of the action of the CTCB compounds on trypanosomes, after a certain exposure time, and thus to assess whether the compounds have a trypanocidal or trypanostatic effect. These experiments were carried out with both the T. b. brucei Lister 427 and T. b. brucei GVR35-luc strains. Trypanosomes at a density of 500,000 cells/ml in culture medium were incubated with CTCB compounds at varying concentrations in 12-well plates in volumes of 1 ml for different periods of time at 37°C. Subsequently, the cultures were centrifuged for 5 min at 2600 x g, the cells washed by re-suspending the pellets in 1 ml medium without inhibitors, centrifuged again and re-suspended in 1 ml fresh medium. The cell suspensions were then incubated under regular culture conditions for 3 days and parasite growth monitored daily by light microscopy.
# The results for both strains are similar with no grow-back at concentrations of CTCB compounds greater than 2 to 4 µM with drug exposure longer than 4-6 hours.
# [7] = GVR35 TTK, 24 h incubation, replicate wells
structure (smiles),measurement,setting,value
"CN(C)CCn1ccc2c(ccn2Cc2ccc(Cl)c(Cl)c2)c1=O [CTCB-405, 1-[(3,4-Dichlorophenyl)methyl]-5-[2-(dimethylamino)ethyl] pyrrolo[3,2-c]pyridin-4-one]",wash-out: grow-back after removal of drug,[1],no grow-back
same,Mouse hepatocytes Clint,[2],3.7 µL min^−1 per 10^6 cells
same,trypanosomes killed in under 30 min,"[3]; 4 µM, GVR35 bioluminescent strain",Over 99%
same,"% Cell viability, single replicates",[3]; 0.5 h,0.291% and 2.73%
same,"% Inhibition, single replicates",[3]; 0.5 h,100% and 97%
same,% Cell viability,"[3]; 0.5 h, average",1.49% and 1.51%
same,% Inhibition,"[3]; 0.5 h, mean, suramin, fexinidazole, SCYX-7158 11 µM, CTCB-405 4 µM",99%
same,"% Cell viability, single replicates",[3]; 1 h,-0.108% and -1%
same,"% Inhibition, single replicates",[3]; 1 h,100% and 101%
same,% Inhibition,"[3]; 1 h, mean, suramin, fexinidazole, SCYX-7158 11 µM, CTCB-405 4 µM",101%
same,"% Cell viability, single replicates",[3]; 2 h,-0.773% and 0.055%
same,"% Inhibition, single replicates",[3]; 2 h,101% and 100%
same,% Cell viability,"[3]; 2 h, average",-0.345% and -0.359%
same,% Inhibition,"[3]; 2 h, mean, suramin, fexinidazole, SCYX-7158 11 µM, CTCB-405 4 µM",100%
same,"% Cell viability, single replicates",[3]; 4 h,-0.741% and -0.843%
same,"% Inhibition, single replicates",[3]; 4 h,101%
same,% Cell viability,"[3]; 4 h, average",-0.791% and 0% and -0.792%
same,% Inhibition,"[3]; 4 h, mean, suramin, fexinidazole, SCYX-7158 11 µM, CTCB-405 4 µM",101%
same,"% Cell viability, single replicates",[3]; 6 h,-0.633% and -0.494%
same,"% Inhibition, single replicates",[3]; 6 h,101% and 100%
same,% Cell viability,"[3]; 6 h, average",-0.563% and -0.564%
same,% Inhibition,"[3]; 6 h, mean, suramin, fexinidazole, SCYX-7158 11 µM, CTCB-405 4 µM",101%
same,"% Cell viability, single replicates",[3]; 8 h,-0.333% and -0.376%
same,"% Inhibition, single replicates",[3]; 8 h,100%
same,% Cell viability,"[3]; 8 h, average",-0.354%
same,% Inhibition,"[3]; 8 h, mean, suramin, fexinidazole, SCYX-7158 11 µM, CTCB-405 4 µM",100%
same,"% Cell viability, Average","[3]; GVR35 TTK, 24 h incubation, average",-0.0941%
same,"Luminescence (medium-subtracted), Average","[3]; GVR35 TTK, 24 h incubation, average of replicates",-1
same,% Inhibition,"[3]; GVR35 TTK, 24 h incubation, from average",100%
same,"% Cell viability, individual replicates",[3]; [7],-0.0906% and -0.0976%
same,"% Inhibition, individual replicates",[3]; [7],100%
same,"Luminescence (medium-subtracted), individual replicates",[3]; [7],-8.5 and 6.5
same,% Cell viability,"[3]; GVR35 TTK, 24 h sheet, summary line marked ""4""",-0.0937%
same,"Luminescence, Average",[3]; 0.5 hour incubation,184
same,"Luminescence, individual replicates",[3]; 0.5 hour incubation,76 and 293
same,"Luminescence, Average",[3]; 1hour incubation,41
same,"Luminescence, individual replicates",[3]; 1hour incubation,96 and -14
same,"Luminescence, Average",[3]; 2hour incubation,40
same,"Luminescence, individual replicates",[3]; 2hour incubation,-17 and 96
same,"Luminescence, Average",[3]; 4hour incubation,-33
same,"Luminescence, individual replicates",[3]; 4hour incubation,-26 and -40
same,"Luminescence, Average",[3]; 6hour incubation,-24
same,"Luminescence, individual replicates",[3]; 6hour incubation,-47 and -1
same,"Luminescence, Average",[3]; 8hour incubation,13
same,"Luminescence, individual replicates",[3]; 8hour incubation,20 and 6
same,"Luminescence, Average",[3]; 24hour incubation,-1
same,"Luminescence, individual replicates",[3]; 24hour incubation,-8.5 and 6.5
same,EC50,[4],190 nM
same,EC50,[5],250 nM
same,wash-out: grow-back after removal of drug,[6],no grow-back
